Test results reported in patent US20150050240A1, “TREATMENT OF FIBROSIS” (NOVARTIS AG, priority 2012, published 2015).

How the values were obtained:
[1] = cited from earlier work
[2] = test system: lung fibroblasts from IPF patients; settings: cited from earlier work
OB-Cadherin = OB-Cadherin expression in HLFs (RT-PCR, western blot); format: cell-based, human; settings: TGFβ treatment of HLFs; FIG. 1A
Experimental: (§1) Total RNA was extracted from HLFs, transcribed into cDNA and used for RT-PCR. Validated Taqman N-Cadherin, OB-Cadherin, vimentin or E-Cadherin primers and probes were purchased from Applied Biosystems.
(§2) Small interfering RNAs against N-Cadehrin and OB-Cadherin were purchased from Applied Biosystems. Knockdown efficiencies were tested by using real-time RT-PCR and confirmed to be 95% at the time of stimulation in the different functional assays.
(§3) HLFs, IPF donor cells, A549 cells lysates or lung tissue lysates were prepared in RIPA buffer. The patient lung biopsies study utilized biological specimens and data provided by the Lung Tissue Research Consortium (LTRC) supported by the National Heart, Lung, and Blood Institute (NHLBI). For Western blots, 1:1000-diluted mouse-anti-N-Cadherin (BD Biosciences), rabbit-anti-OB-Cadherin (Santa Cruz), mouse-anti-SMA (Sigma), mouse-anti-vimetin (DACO), mouse-anti-E-Cadherin (Abram), rabbit-anti-β-catenin (Cell Signaling Technology), anti-rabbit-p-[…]-β-catenin (Cell Signaling Technology), rabbit-anti-β-actin (Santa Cruz) and mouse-anti-GAPDH (Santa Cruz) were used in combination with HRP-conjugated secondary antibodies (GE Healthcare). Western blots were developed using an ECL system (GE Healthcare). Quantification of the intensity of the bands was performed using NIH ImageJ software.

[3] = test system: primary human lung fibroblasts (HLFs); assay: Fibroblast-to-myofibroblast transition (FMT), western blot for SMA; format: cell-based
Experimental: Primary human lung fibroblasts (Promocell) were maintained in DMEM supplemented with 10% heat-inactivated FBS, 1 mM Na-pyruvate and 1% Penicillin/Streptomycin and trypsinised every 4 days. Sub-confluent HLFs were electroporated via nucleofection (Amaxa electroporation system) with siRNAs.
as §3
To assess functional responses, non-transfected HLFs or HLFs transfected with siRNAs were plated in full growth medium and left to grow overnight, starved for 24 h in serum-free medium and stimulated with different growth factors for a further 24 h. For FMT assessment, the HLF cells were stimulated with 5 ng/ml TGFβ (R&D Systems) or 10 μg/ml human N-Cadherin-Fc (R&D Systems), for collagen secretion—with 1 ng/ml TGFβ, for proliferation—with FBS, 10 ng/ml PDGF-BB (R&D Systems) or 10 ng/ml FGF-2 (R&D Systems) and for migration—with 10 μg/ml human N-Cadherin-Fc (R&D Systems) or human OB-Cadherin-Fc (R&D Systems). […] The level of FMT was evaluated by western blot for SMA. Collagen secretion was measured by Sircol collagen assay (Biocolor Life Science). Proliferation assay was performed using the DELFIA system (PerkinElmer), and migration was assessed with the Oris System (Platypus Technology).

β-catenin = assay: Western blots for p-Ser552 β-catenin and total β-catenin from HLFs; format: cell-based, human; settings: HLFs stimulated with TGFβ; FIG. 4A
Experimental: as §3
To assess the regulation of β-catenin in response to a fibrotic stimulus in HLFs, cells were stimulated with TGFβ and the expression levels and phosphorylation state of β-catenin were assessed by Western blot (FIG. 4A). There was no difference in the expression levels of total β-catenin in TGFβ-stimulated cells. However, when the cell lysates were probed with a phospho-specific β-catenin antibody, we found an increase in the phosphorylation of Ser552 upon TGFβ treatment. […]

N-Cadherin = N-Cadherin expression in HLFs (RT-PCR, western blot); format: cell-based, human; settings: TGFβ treatment, low and high cell density; FIG. 1A
Experimental: as §1, §2, §3

[4] = cited from earlier work; remark: listed apart in the source
[5] = test system: primary human lung fibroblasts (HLFs); assay: HLF migration, in vitro wound closure assay (Oris System); format: cell-based; settings: 10 μg/ml N-Cadherin-Fc; FIG. 3A
Experimental: To assess functional responses, non-transfected HLFs or HLFs transfected with siRNAs were plated in full growth medium and left to grow overnight, starved for 24 h in serum-free medium and stimulated with different growth factors for a further 24 h. For FMT assessment, the HLF cells were stimulated with 5 ng/ml TGFβ (R&D Systems) or 10 μg/ml human N-Cadherin-Fc (R&D Systems), for collagen secretion—with 1 ng/ml TGFβ, for proliferation—with FBS, 10 ng/ml PDGF-BB (R&D Systems) or 10 ng/ml FGF-2 (R&D Systems) and for migration—with 10 μg/ml human N-Cadherin-Fc (R&D Systems) or human OB-Cadherin-Fc (R&D Systems). In the loss of function FMT experiment, 50 μg/ml N-Cadherin neutralizing antibody (clone GC-4, Sigma) was used. The level of FMT was evaluated by western blot for SMA. Collagen secretion was measured by Sircol collagen assay (Biocolor Life Science). Proliferation assay was performed using the DELFIA system (PerkinElmer), and migration was assessed with the Oris System (Platypus Technology).
Increased migration is a hallmark of myofibroblasts and is thought to contribute to the pathology of IPF. Therefore, we investigated the effects of N-Cadherin gain- and loss-of function on the migratory potential of HLFs. We performed an in vitro wound closure assay with cells treated with the recombinant N-Cadherin-Fc chimera or with N-Cadherin siRNA.

[6] = test system: A549 epithelial alveolar type II cells; assay: Epithelial-to-mesenchymal transition (EMT) in A549 cells (RT-PCR, western blot, E-Cadherin immunocytochemistry); format: cell-based, human; settings: recombinant N-Cadherin-Fc, immunocytochemistry for E-Cadherin
Experimental: A549 epithelial alveolar type II cells (ATCC) were maintained in DMEM supplemented with 10% heat-inactivated FBS and 1% Penicillin/Streptomycin and trypsinised every 4 days.
For EMT assessment, A549 cells were simulated with 5 ng/ml TGFβ (R&D Systems), a combination of 5 ng/ml TGFβ (R&D Systems) and 2.5 ng/ml IL-1β (R&D Systems) or N-Cadherin-Fc (R&D Systems). The level of EMT was evaluated either by RT-PCR and Western blot for vimentin and E-Cadheirn or by immunocytochemistry for E-Cadherin. In the loss of function EMT experiment, N-Cadherin neutralizing tool antibody or IgG isotype control were used in the presence of 18 μg/ml N-cadheirn-Fc (R&D Systems).

[7] = phase II trial with IPF patients
[8] = more recent clinical trial, discontinued in 2007

For `Cc1ccc(=O)n(-c2ccccc2)c1` [Pirfenidone], which chest radiographs [1, 7] is on record?
The chest radiographs was “did not improve”.

What about the pulmonary functional tests [1, 7] of the same molecule?
Its pulmonary functional tests is “stabilized or improved in some patients”.

What about the side effects [1, 7] of the same molecule?
Its side effects is “no severe side effects”.

And the survival rates [1, 7]?
The survival rates was “improved”.

What about the lung function ([1]; phase III clinical trial, IPF patients) of the same molecule?
Its lung function is “might positively affect lung function”.

And the collagen synthesis [2]?
The collagen synthesis was “reduces collagen synthesis”.

What about the “mitogenic effects of pro-fibrotic cytokines” value [2] of the same molecule?
Its value is “blocks mitogenic effects”.

What does the source list for “TGFβ: TGFβ (R&D Systems), pro-fibrotic stimulus used to induce FMT”?
OB-Cadherin expression (OB-Cadherin): upregulated; SMA expression ([3]; TGFβ stimulation, low and high cell density): marked increase; expression levels of total β-catenin (β-catenin): no difference; phosphorylation of Ser552 of β-catenin (β-catenin): increase; N-Cadherin expression (N-Cadherin): upregulated

For interferon, which clinical improvement ([4]; IPF patients refractory to corticosteroid or immunosuppressive therapy) is on record?
The clinical improvement was “showed no improvement”.

And the clinical trial outcome [4, 8]?
The clinical trial outcome was “ineffectiveness”.

What about the “patients death rates compared with placebo” value [4, 8] of the same molecule?
Its value is “slightly increased”.

B1: N-Cadherin-Fc: human N-Cadherin-Fc fusion protein (R&D Systems) that mimics N-Cadherin homophilic interactions and activates N-Cadherin signalling (protein)
chain: DWVIPPINLPENSRGPFPQELVRIRSDRDKNLSLRYSVTGPGADQPPTGIFIINPISGQLSVTKPLDREQIARFHLRAHAVDINGNQVENPIDIVINVIDMNDNRPEFLHQVWNGTVPEGSKPGTYVMTVTAIDADDPNALNGMLRYRIVSQAPSTPSPNMFTINNETGDIITVAAGLDREKVQQYTLIIQATDMEGNPTYGLSNTATAVITVTDVNDNPPEFTAMTFYGEVPENRVDIIVANLTVTDKDQPHTPAWNAVYRISGGDPTGRFAIQTDPNSNDGLVTVVKPIDFETNRMFVLTVAAENQVPLAKGIQHPPQSTATVSVTVIDVNENPYFAPNPKIIRQEEGLHAGTMLTTFTAQDPDRYMQQNIRYTKLSDPANWLKIDPVNGQITTIAVLDRESPNVKNNIYNATFLASDNGIPPMSGTGTLQIYLLDINDNAPQVLPQEAETCETPDPNSINITALDYDIDPNAGPFAFDLPLSPVTIKRNWTITRLNGDFAQLNLKIKFLEAGIYEVPIIITDSGNPPKSNISILRVKVCQCDSNGDCTDVDRIVGAGLGTGA
modifications: left off: a dimerising Fc or GST
With B1 as the molecule, how does the SMA expression ([3]; HLFs treated with 10 μg/ml N-Cadherin-Fc for 24 h, FIG. 2A) read?
The SMA expression was “significant increase”.

And the “additive or synergistic effect on SMA expression” value ([3]; combination of TGFβ and N-Cadherin-Fc, 24 h)?
Its value is “did not observe an additive or synergistic effect”.

And the “HLF migration into the wound” value [5]?
Its value is “significant increase”.

What about the “EMT, measured by decreased E-Cadherin signal” value [6] of the same molecule?
The value was “significant EMT”.
